US12162861B2, “Dopamine D3 receptor selective antagonists/partial agonists; method of making; and use thereof” (THE UNITED STATES OF AMERICA, AS REPRESENTED BY THE …, priority 2016, dated 2024)
Entries after “also recorded” stand apart in the source; their conditions may differ.

Tests used:
cannabinoid CB1 receptor = cannabinoid CB1 receptor (Homo sapiens, UniProt P21554); assay: Binding to cannabinoid CB1 receptor
opiate kappa receptor = opiate kappa receptor (Homo sapiens, UniProt P41145); assay: Binding to opiate kappa receptor
Sequence of opiate kappa receptor (P41145 whole entry): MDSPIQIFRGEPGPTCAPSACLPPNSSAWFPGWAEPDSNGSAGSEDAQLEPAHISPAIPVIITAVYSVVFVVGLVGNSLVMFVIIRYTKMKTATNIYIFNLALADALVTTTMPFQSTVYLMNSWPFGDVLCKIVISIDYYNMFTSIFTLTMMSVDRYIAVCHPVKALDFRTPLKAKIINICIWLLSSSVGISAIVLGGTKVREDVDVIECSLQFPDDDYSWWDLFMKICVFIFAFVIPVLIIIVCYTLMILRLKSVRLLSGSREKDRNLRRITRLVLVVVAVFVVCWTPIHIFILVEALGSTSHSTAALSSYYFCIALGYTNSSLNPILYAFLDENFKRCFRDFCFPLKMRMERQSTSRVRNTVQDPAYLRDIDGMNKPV

squirrel monkeys [1] = assay: THC self-administration in squirrel monkeys (FR10); type: in vivo, squirrel monkey (Saimiri sciureus); conditions: FR10, 1, 3, and 10 mg/kg i.m.
Source text: Subjects: Seven adult male squirrel monkeys (Saimiri sciureus) weighing 0.8 to 1.1 kg were housed in individual cages in a temperature- and humidity-controlled room with unrestricted access to water. […] The monkeys were trained to self-administer either THC or food pellets prior to the study. Monkeys were fed (approximately two hours after the session) a daily food ration consisting of biscuits of high protein monkey diet (Lab Diet 5045, PMI Nutrition International, Richmond, Indiana). The number of biscuits (8-14) was determined for each monkey individually to maintain their body weights at a constant level throughout the study. […]
Apparatus: Experimental chambers and other apparatus used in this study were the same as previously described (Justinova et al. 2003). […] The chair contained one response lever (Med Associates., USA) mounted on a transparent front wall; each press on the lever with a force greater than 0.2 N produced an audible click and was recorded as a response. […]
Self-administration procedure: Daily one-hour experimental sessions were typically conducted from Monday through Friday with each monkey. […] Before the start of the session, catheters were flushed with 1 ml of saline and one injection was delivered (calculated to fill the dead space of the catheter which was about 0.2 ml). […]

squirrel monkeys [2] = assay: THC priming-induced reinstatement of drug seeking in squirrel monkeys; type: in vivo, squirrel monkey (Saimiri sciureus); conditions: squirrel monkeys, 1, 3, and 10 mg/kg i.m., FIG. 9
Source text: Reinstatement studies: In order to separately determine the reinstatement effects of a priming injection and drug-associated cues, we use two different extinction protocols (described below) that allow us to isolate the effects of these independent variables.
Priming-induced reinstatement: Before priming-induced reinstatement testing began, monkeys were allowed to self-administer the training dose of THC until they reached a stable baseline (5-10 sessions). In subsequent extinction sessions, lever presses led to i.v. saline infusions plus the visual cues that had been associated previously with THC. After at least two sessions of extinction, when responding had reached a low, stable level, a priming injection of THC (0.04 mg/kg i.v.) was given immediately before the next session, during which responding (FR10) continued to produce only i.v. saline injections and the discrete visual cues. […] A non-contingent i.v. injection of vehicle was also given before each extinction session as a control for the drug priming treatment.
Δ^9-tetrahydrocannabinol (THC, NIDA Drug Supply Program, Bethesda, MD, USA) was dissolved in a vehicle containing 1% Tween 80, 1% ethanol, and saline to obtain stock solution (0.4 mg/ml) and further diluted with saline. In the reinstatement tests, THC was injected i.v. (1 ml/kg) immediately before the session.

[3] = Sucrose self-administration; type: in vivo; conditions: pretreatment (±)-29 15 and 25 mg/kg, (±)-19 1 and 5 mg/kg

Sequence of cannabinoid CB1 receptor (P21554 whole entry): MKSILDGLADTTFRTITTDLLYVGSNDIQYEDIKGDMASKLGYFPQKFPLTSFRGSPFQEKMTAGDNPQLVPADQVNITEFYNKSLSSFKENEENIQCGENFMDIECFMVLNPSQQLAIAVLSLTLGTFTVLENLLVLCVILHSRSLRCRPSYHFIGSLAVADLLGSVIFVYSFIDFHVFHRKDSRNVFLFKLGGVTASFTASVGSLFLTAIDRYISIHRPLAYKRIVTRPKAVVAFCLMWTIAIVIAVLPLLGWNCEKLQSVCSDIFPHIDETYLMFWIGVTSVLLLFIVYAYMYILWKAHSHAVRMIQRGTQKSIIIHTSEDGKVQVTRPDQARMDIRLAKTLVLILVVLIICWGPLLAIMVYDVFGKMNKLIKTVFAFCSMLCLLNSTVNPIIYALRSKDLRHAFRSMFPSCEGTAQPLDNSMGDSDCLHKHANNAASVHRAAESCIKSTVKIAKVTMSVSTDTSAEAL

binding to cannabinoid CB1 receptor (cannabinoid CB1 receptor): does not bind | binding to opiate kappa receptor (opiate kappa receptor): does not bind
Compound: CCc1cc(Cl)c(OC)c(N2CCN(CC(O)CCNC(=O)c3cc4ccccc4[nH]3)CC2)c1 (racemic) [Compound 29, N-(4-(4-(3-chloro-5-ethyl-2-methoxyphenyl)piperazin-1-yl)-3-hydroxybutyl)-1H-indole-2-carboxamide]
THC self-administration (squirrel monkeys [1]; FIG. 7): attenuates THC self-administration; also recorded: dose-dependently blocked THC self-administration | THC self-administration (squirrel monkeys [1]; FIG. 7, listed as (±)-29): attenuation of THC self-administration | THC-induced reinstatement to drug seeking (squirrel monkeys [2]): attenuates THC-induced reinstatement to drug seeking; also recorded: blocked THC-induced reinstatement of drug seeking | THC-induced reinstatement to drug seeking (squirrel monkeys [2]; listed as (±)-29): attenuation of THC-induced reinstatement to drug seeking | sucrose self-administration [3]: no significant effects on sucrose self-administration
